The subject of test [1] is hiPSC-derived pancreatic progenitors. The test is described as follows: Western blotting of transcription factors in FAD-treated pancreatic progenitors. The following applies: FIG. 7. In kind it is cell-based, human. How it is done: (§1) Human induced pluripotent stem cells (hiPSCs) are cultured and maintained using mTeSR Plus medium (Stem Cell Technologies, Canada), then plated on 1:50 Matrigel-coated dishes (Corning, USA). Upon reaching 70-80% confluency, cells are differentiated into pancreatic progenitors using a protocol described by Memon et al. (Memon et al. Stem Cell Research and Therapy, 9, Article 15, 2018). Cells are treated with different concentrations of FAD (0.25 μM, 0.5 μM, and 1 μM) (Sigma-Aldrich, Germany) during the four days of pancreatic progenitor stage of in vitro differentiation. The control cells are treated with water. After the treatment period, cells are fixed and immunostaining is performed using previously reported protocols by Memon et al. Cells are also collected for total protein extraction using Radioimmunoprecipitation Assay (RIPA) lysis buffer and are normalized to 20 ng/μL before SDS-PAGE separation. Nitrocellulose membranes are blocked using 15% skimmed milk in 0.5% tris-buffered saline (TBST). Membranes are then incubated with primary antibodies overnight at 4° C. Membranes are washed with 0.5% TBST and secondary antibodies are added for 1 hour at room temperature. Membranes are developed using SuperSignal West Pico Chemiluminescent substrate (Pierce, Loughborough, UK) and are then visualized using iBright™ CL 1000 Imaging System (Invitrogen).
(In general: A western blot detects proteins with antibodies after separation by electrophoresis.)

The test system is the same in test [2]. The test is described as follows: Immunostaining of PDX1 and NKX6.1 in FAD-treated pancreatic progenitors. As to conditions: different FAD concentrations during four days of pancreatic progenitor stage; FIG. 6. It is filed as cell-based, human. The method, then:
as §1

The target of test [3] is T1, SOX2 HMG domain (Homo sapiens, UniProt P48431).
T1 construct: made in house
The test is described as follows: UV-visible absorbance spectroscopy of purified SOX2 HMG domain for bound cofactor. It is filed as binding. As to conditions: purified SOX2 HMG domain from bacterial expression.

Test [4] concerns hiPSC-derived pancreatic progenitors. In words: Expression of pancreatic developmental markers after cofactor treatment of differentiating hiPSCs (FIG. 5, FIG. 8). It is filed as cell-based, human. The method, then: Human induced pluripotent stem cells (hiPSCs) are cultured and maintained using mTeSR Plus medium (Stem Cell Technologies, Canada), then plated on 1:50 Matrigel-coated dishes (Corning, USA). Upon reaching 70-80% confluency, cells are differentiated into pancreatic progenitors using a protocol described by Memon et al. (Memon et al. Stem Cell Research and Therapy, 9, Article 15, 2018). Cells are treated with different concentrations of FAD (0.25 μM, 0.5 μM, and 1 μM) (Sigma-Aldrich, Germany) during the four days of pancreatic progenitor stage of in vitro differentiation. The control cells are treated with water.

The target in test [5] is T2, SOX9 HMG domain (Mus musculus, UniProt Q04887).
T2 construct: construct containing HMG and N-terminal domain, 1-173 amino acids; His tag (pET-28a) (N); made in house; host or cells: E. coli BL21(DE3)-RIL
T2 sequence (Q04887 1-173): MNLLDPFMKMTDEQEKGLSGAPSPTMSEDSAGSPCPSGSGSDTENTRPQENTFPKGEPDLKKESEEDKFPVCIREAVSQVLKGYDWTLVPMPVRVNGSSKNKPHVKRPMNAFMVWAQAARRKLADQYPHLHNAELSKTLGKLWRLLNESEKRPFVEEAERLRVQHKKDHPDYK
The test is described as follows: 1D-PAGE in-gel digest and LC-MS/MS of SOX9 HMG domain to identify bound cofactor. In kind it is binding. As to conditions: purified SOX9 HMG domain; FIG. 2. The method, then: MS data are analyzed and annotated with Genedata Expressionist software (v.13.0.1) using the Peptide Mapping Tool. The raw MS data are processed using two Genedata modules: Refiner MS for data pre-processing, and Analyst for data post-processing and statistical analyses. Briefly, after noise reduction, LC-MS1 base peaks are detected and their properties calculated (m/z and RT boundaries, m/z and RT center values, intensity). Chromatograms are further aligned based on the RT spectra using a 2 min range. Individual peaks are grouped into clusters and MS/MS data associated to these clusters are annotated with the Peptide Mapping Tool using the FASTA sequence of sp|Q04887|SOX9_MOUSE Transcription factor SOX-9. The search is performed with a peptide tolerance of 0.1 Da, a MS/MS tolerance of 0.01 Da, two allowed missed cleavages, and only annotations with a minimum score of 10 are considered. As variable modifications, the following parameters are applied: carbamidomethyl (C) maximum: 2 per sequence allowed: anywhere, FAD (C), FAD (H), FAD (Y) maximum: 2 per sequence allowed: anywhere, FMN (S), FMN (T) maximum: 2 per sequence allowed: anywhere, pyridoxal phosphate (K) maximum: 2 per sequence allowed: anywhere, and pyridoxal phosphate H2 (K) maximum: 2 per sequence allowed: anywhere.

Test [6] concerns the target T2, SOX9 HMG domain. In words: UV-visible absorbance spectroscopy of purified SOX9 HMG domain for bound cofactor. It is filed as binding. The following applies: purified SOX9 HMG domain from bacterial expression; FIG. 1E. The method, then:
Purified SOX9 proteins of 2-4 mg/ml concentration are used for reading the absorbance of bind cofactors. The UV-Vis spectra are obtained on a UV-Vis spectrophotometer BMS (Biotechnology Medical Science) UV-1602, scanning from 300 nm to 800 nm. The baseline is corrected with the buffer used to prepare the protein samples.

T1 sequence (P48431 41-109 limits assumed): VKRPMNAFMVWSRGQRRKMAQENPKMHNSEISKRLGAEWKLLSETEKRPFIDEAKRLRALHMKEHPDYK

For `Cc1cc2nc3c(=O)[nH]c(=O)nc-3n(C[C@H](O)[C@H](O)[C@H](O)COP(=O)(O)OP(=O)(O)OC[C@H]3O[C@@H](n4cnc5c(N)ncnc54)[C@H](O)[C@@H]3O)c2cc1C` [FAD, Flavin Adenine Dinucleotide], the “PTF1a level (exocrine marker)” value in test [1] (0.5 μM and 1 μM FAD) is “increased”. In addition, the SOX9 level entry in test [1] (FAD 0.25 μM, 0.5 μM, 1 μM, four days of pancreatic progenitor stage) is “increases gradually with increased FAD concentrations”. For the same molecule, the “co-expression of PDX1 and NKX6.1 (efficiency of pancreatic progenitor differentiation)” value in test [2] is “most of the pancreatic progenitor cells co-expressed PDX1 and NKX6.1”. Also, the “absorbance peak at approximately 420 nm (FAD-bound protein)” value in test [3] is recorded as “no obvious peak”; in test [6], “peak at approximately 420 nm characteristic of an FAD-bound protein”. The “relative changes in NGN3 and NKX6.1” value in test [4] (FAD added to early stage differentiation, FIG. 5) was “appears to increase pancreatic developmental factors”. In addition, the “expression of NGN3” value in test [4] (about 0.5 μM FAD, FIG. 8A) is recorded as “along with NGN3”. The “cofactor binding detected by LC-MS/MS peaks” value (from here on “cofactor binding detected”) in test [5] is “suggestive of FAD, FMN and PLP binding”.

Consider `Cc1cc2nc3c(=O)[nH]c(=O)nc-3n(C[C@H](O)[C@H](O)[C@H](O)COP(=O)(O)O)c2cc1C` [FMN, Flavin Mononucleotide], for which the “cofactor binding detected” value in test [5] was “suggestive of FAD, FMN and PLP binding”.

With `Cc1ncc(COP(=O)(O)O)c(C=O)c1O` [PLP, Pyridoxal 5′-phosphate], in test [4] (about 4 μM-8 μM PLP, FIG. 8B), the “expression of NGN3” value was “high expression of NGN3” and the “expression of PTF1a” value was “appearance of PTF1a”. Besides, the “cofactor binding detected” value in test [5] was “suggestive of FAD, FMN and PLP binding”.

For the origin of these results see patent US20240141299A1, “Cofactors FAD and PLP for Promoting Pancreatic Progenitors in Pancreatic Development” (Qatar Foundation for Education, Science and Community …, priority 2022, published 2024).
